Laboratory results taken from PubChem BioAssay AID248 (DTP/NCI, 2004).
“And” between values parts separate entries of the source, which are not always exact repeats. Identical values can stand only once. Inconclusive results and toxic doses are left out.

System: L1210 leukemia ip in BDF1 mice, survival T/C
Assay: NCI In Vivo Anticancer Drug Screen. Data for tumor model L1210 Leukemia (intraperitoneal) in B6D2F1 (BDF1) mice
Conditions: endpoint: mean survival time, higher = longer survival
In short: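 Survival endpoint. Drug-treated group vs vehicle group, expressed as T divided by C. Tumor passaged by transplantation.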

## C=CC(CN1CC1)OC(C)=O (stereo unspecified)
dose: 0.25 mg/kg/injection, schedule: Q03DX Z (ip), vehicle: saline
  T/C: 104 % of control
dose: 0.5 mg/kg/injection, schedule: Q01DX010 (oral), vehicle: saline
  T/C: 120 % of control
dose: 0.5 mg/kg/injection, schedule: Q03DX Z (ip), vehicle: saline
  T/C: 98 % of control
dose: 0.95 mg/kg/injection, schedule: Q01DX Z (ip), vehicle: olive oil, sesame oil, peanut oil
  T/C: 105 % of control
dose: 0.95 mg/kg/injection, schedule: Q01DX Z (oral), vehicle: olive oil, sesame oil, peanut oil
  T/C: 100 % of control
dose: 1.0 mg/kg/injection, schedule: Q03DX Z (ip), vehicle: saline
  T/C: 106 % of control
dose: 1.0 mg/kg/injection, schedule: Q07DX Z (ip), vehicle: saline
  T/C: 105 % of control
dose: 1.2 mg/kg/injection, schedule: Q01DX Z (ip), vehicle: carboxymethylcellulose (CMC)
  T/C: 104 % of control
dose: 1.24 mg/kg/injection, schedule: Q01DX Z (ip), vehicle: carboxymethylcellulose (CMC)
  T/C: 109 % of control
dose: 1.3 mg/kg/injection, schedule: Q#A X Z (ip), vehicle: other
  T/C: 112 % of control
dose: 1.8 mg/kg/injection, schedule: Q01DX Z (ip), vehicle: carboxymethylcellulose (CMC)
  T/C: 93 % of control and 98 % of control
dose: 1.8 mg/kg/injection, schedule: Q01DX Z (oral), vehicle: carboxymethylcellulose (CMC)
  T/C: 102 % of control
dose: 1.9 mg/kg/injection, schedule: Q01DX Z (ip), vehicle: olive oil, sesame oil, peanut oil
  T/C: 116 % of control
dose: 1.9 mg/kg/injection, schedule: Q01DX Z (oral), vehicle: olive oil, sesame oil, peanut oil
  T/C: 103 % of control
dose: 1.9 mg/kg/injection, schedule: Q01DX Z (oral), vehicle: other
  T/C: 102 % of control
dose: 2.0 mg/kg/injection, schedule: Q01DX006 (iv), vehicle: saline
  T/C: 100 % of control
dose: 2.0 mg/kg/injection, schedule: Q01DX010 (oral), vehicle: saline
  T/C: 100 % of control
dose: 2.0 mg/kg/injection, schedule: Q02DX004 (im), vehicle: saline
  T/C: 116 % of control
dose: 2.0 mg/kg/injection, schedule: Q07DX Z (ip), vehicle: saline
  T/C: 95 % of control
dose: 2.48 mg/kg/injection, schedule: Q01DX Z (ip), vehicle: carboxymethylcellulose (CMC)
  T/C: 109 % of control
dose: 2.5 mg/kg/injection, schedule: Q01DX Z (oral), vehicle: saline
  T/C: 121 % of control
dose: 2.6 mg/kg/injection, schedule: Q01DX Z (ip), vehicle: other
  T/C: 117 % of control
dose: 2.6 mg/kg/injection, schedule: Q01DX Z (sc), vehicle: other
  T/C: 119 % of control
dose: 2.7 mg/kg/injection, schedule: Q01DX Z (ip), vehicle: carboxymethylcellulose (CMC)
  T/C: 118 % of control
dose: 3.25 mg/kg/injection, schedule: Q01DX Z (ip), vehicle: saline
  T/C: 151 % of control
dose: 3.25 mg/kg/injection, schedule: Q01DX Z (oral), vehicle: saline
  T/C: 161 % of control
dose: 3.7 mg/kg/injection, schedule: Q01DX Z (ip), vehicle: carboxymethylcellulose (CMC)
  T/C: 93 % of control
dose: 3.7 mg/kg/injection, schedule: Q01DX Z (oral), vehicle: carboxymethylcellulose (CMC)
  T/C: 101 % of control and 90 % of control
dose: 3.75 mg/kg/injection, schedule: Q01DX Z (ip), vehicle: olive oil, sesame oil, peanut oil
  T/C: 122 % of control
dose: 3.75 mg/kg/injection, schedule: Q01DX Z (oral), vehicle: olive oil, sesame oil, peanut oil
  T/C: 105 % of control
dose: 3.8 mg/kg/injection, schedule: Q01DX Z (ip), vehicle: olive oil, sesame oil, peanut oil
  T/C: 90 % of control
dose: 3.8 mg/kg/injection, schedule: Q01DX Z (oral), vehicle: other
  T/C: 120 % of control
dose: 4.0 mg/kg/injection, schedule: Q01DX006 (iv), vehicle: saline
  T/C: 108 % of control
dose: 4.0 mg/kg/injection, schedule: Q01DX Z (sc), vehicle: other
  T/C: 122 % of control
dose: 4.0 mg/kg/injection, schedule: Q02DX004 (im), vehicle: saline
  T/C: 120 % of control
dose: 4.0 mg/kg/injection, schedule: Q07DX Z (ip), vehicle: saline
  T/C: 115 % of control
dose: 4.5 mg/kg/injection, schedule: Q#A X Z (ip), vehicle: other
  T/C: 102 % of control
dose: 7.5 mg/kg/injection, schedule: Q01DX009 (ip), vehicle: saline
  T/C: 191 % of control
dose: 7.5 mg/kg/injection, schedule: Q01DX Z (ip), vehicle: carboxymethylcellulose (CMC)
  T/C: 104 % of control
dose: 7.5 mg/kg/injection, schedule: Q01DX Z (ip), vehicle: saline
  T/C: 259 % of control
dose: 7.5 mg/kg/injection, schedule: Q01DX Z (oral), vehicle: carboxymethylcellulose (CMC)
  T/C: 93 % of control and 96 % of control
dose: 7.5 mg/kg/injection, schedule: Q01DX Z (oral), vehicle: olive oil, sesame oil, peanut oil
  T/C: 111 % of control
dose: 7.5 mg/kg/injection, schedule: Q01DX Z (oral), vehicle: saline
  T/C: 150 % of control
dose: 7.6 mg/kg/injection, schedule: Q01DX Z (oral), vehicle: olive oil, sesame oil, peanut oil
  T/C: 150 % of control
dose: 7.6 mg/kg/injection, schedule: Q01DX Z (oral), vehicle: other
  T/C: 88 % of control
dose: 8.0 mg/kg/injection, schedule: Q03DX Z (ip), vehicle: other
  T/C: 153 % of control
dose: 8.0 mg/kg/injection, schedule: Q07DX Z (ip), vehicle: saline
  T/C: 121 % of control
dose: 9.0 mg/kg/injection, schedule: Q01DX Z (ip), vehicle: other
  T/C: 100 % of control
dose: 10.0 mg/kg/injection, schedule: Q01DX Z (oral), vehicle: saline
  T/C: 169 % of control
dose: 11.0 mg/kg/injection, schedule: Q01DX001 (ip), vehicle: saline
  T/C: 109 % of control and 118 % of control
dose: 12.0 mg/kg/injection, schedule: Q03DX Z (ip), vehicle: other
  T/C: 159 % of control
dose: 14.85 mg/kg/injection, schedule: Q01DX Z (ip), vehicle: carboxymethylcellulose (CMC)
  T/C: 96 % of control
dose: 15.0 mg/kg/injection, schedule: Q01DX009 (ip), vehicle: saline
  T/C: 107 % of control
dose: 15.0 mg/kg/injection, schedule: Q01DX Z (ip), vehicle: carboxymethylcellulose (CMC)
  T/C: 120 % of control
dose: 15.0 mg/kg/injection, schedule: Q01DX Z (ip), vehicle: saline
  T/C: 111 % of control
dose: 15.0 mg/kg/injection, schedule: Q01DX Z (oral), vehicle: carboxymethylcellulose (CMC)
  T/C: 102 % of control and 117 % of control
dose: 15.0 mg/kg/injection, schedule: Q01DX Z (oral), vehicle: saline
  T/C: 108 % of control
dose: 15.1 mg/kg/injection, schedule: Q01DX Z (oral), vehicle: olive oil, sesame oil, peanut oil
  T/C: 104 % of control
dose: 15.1 mg/kg/injection, schedule: Q01DX Z (oral), vehicle: other
  T/C: 96 % of control
dose: 16.0 mg/kg/injection, schedule: Q02DX004 (im), vehicle: saline
  T/C: 189 % of control
dose: 17.0 mg/kg/injection, schedule: Q01DX001 (ip), vehicle: saline
  T/C: 116 % of control
dose: 18.0 mg/kg/injection, schedule: Q03DX Z (ip), vehicle: other
  T/C: 112 % of control
dose: 18.0 mg/kg/injection, schedule: Q07DX Z (ip), vehicle: other
  T/C: 175 % of control
dose: 19.8 mg/kg/injection, schedule: Q01DX Z (ip), vehicle: carboxymethylcellulose (CMC)
  T/C: 96 % of control
dose: 20.0 mg/kg/injection, schedule: Q01DX Z (oral), vehicle: saline
  T/C: 106 % of control
dose: 25.0 mg/kg/injection, schedule: Q01DX001 (ip), vehicle: saline
  T/C: 153 % of control
dose: 27.0 mg/kg/injection, schedule: Q03DX Z (ip), vehicle: other
  T/C: 89 % of control
dose: 28.0 mg/kg/injection, schedule: Q07DX Z (ip), vehicle: other
  T/C: 158 % of control
dose: 30.0 mg/kg/injection, schedule: Q01DX Z (ip), vehicle: saline
  T/C: 105 % of control
dose: 30.0 mg/kg/injection, schedule: Q01DX Z (oral), vehicle: carboxymethylcellulose (CMC)
  T/C: 101 % of control and 113 % of control
dose: 30.0 mg/kg/injection, schedule: Q01DX Z (oral), vehicle: saline
  T/C: 111 % of control and 88 % of control
dose: 32.0 mg/kg/injection, schedule: Q02DX004 (im), vehicle: saline
  T/C: 97 % of control
dose: 32.0 mg/kg/injection, schedule: Q07DX Z (ip), vehicle: saline
  T/C: 210 % of control
dose: 50.0 mg/kg/injection, schedule: Q01DX001 (ip), vehicle: saline
  T/C: 94 % of control
dose: 60.0 mg/kg/injection, schedule: Q01DX Z (ip), vehicle: saline
  T/C: 116 % of control
dose: 60.0 mg/kg/injection, schedule: Q01DX Z (oral), vehicle: saline
  T/C: 113 % of control
